From PubChem BioAssay (NCI) come the findings set out here.

Among the test systems are HCT-116 colon; HT29 colon; K-562 leukemia; LOX IMVI melanoma; M14 melanoma; SF-295 CNS; SF-539 CNS; SW-620 colon.
Test in all cases: inhibition of tumour cell growth, NCI panel, 48 h

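Protocol summary: plate cells (96-well), add compound at 5 concentrations, incubate 48 h, interpolate endpoints linearly. The concentration for 50% growth inhibition is given as GI50. TGI: total growth inhibition.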 A value given as a limit tells only on which side of the number the result lay.

Turning to `O=C(O)c1cc(Cl)cc(NC(=O)C(Cl)Cl)c1Cl`, the TGI in the assay on HCT-116 colon, in the assay on HT29 colon, in the assay on K-562 leukemia, in the assay on LOX IMVI melanoma, in the assay with M14 melanoma and in the assay on SF-295 CNS was > 100 µM in each case. Also, the TGI in the assay on SF-539 CNS and in the assay with SW-620 colon was > 100 µM throughout.

As to `c1ccc2c(c1)CCCc1cc3ccccc3nc1-2`, the TGI in the assay with HCT-116 colon, in the assay with HT29 colon, in the assay on K-562 leukemia, in the assay with M14 melanoma, in the assay on SF-295 CNS and with SF-539 CNS was > 100 µM each time. Further, in the assay with SW-620 colon, the TGI was > 100 µM.

For `O=C1[C@H]2C(c3ccccc3)=NN(C(=O)c3ccccc3)[C@H]2C(=O)N1c1ccccc1`, the TGI with HCT-116 colon, in the assay on HT29 colon, in the assay on K-562 leukemia, in the assay with LOX IMVI melanoma, with M14 melanoma and with SF-295 CNS was > 100 µM in each case. Further, the TGI in the assay with SF-539 CNS and in the assay on SW-620 colon was > 100 µM throughout.

On to `O=C(CCCCCCCCCCc1ccccc1)c1c(O)cccc1O`, for which the TGI came to 48.3 µM in the assay on HCT-116 colon; 88 µM in the assay with HT29 colon; 58.7 µM in the assay with K-562 leukemia; 72.9 µM in the assay with LOX IMVI melanoma; 35.6 µM in the assay with M14 melanoma; 47 µM in the assay on SF-295 CNS. For the same molecule, the TGI is 34.8 µM with SF-539 CNS and 34.7 µM in the assay on SW-620 colon.

Turning to `N#Cc1c2c(c(N=[N+]=[N-])n3c1nc1ccccc13)CCCC2`, the TGI in the assay with HCT-116 colon stood at 3.51 µM; with HT29 colon, 3.77 µM; in the assay on K-562 leukemia, 8.21 µM; in the assay on LOX IMVI melanoma, 3.52 µM; with M14 melanoma, 3.48 µM; in the assay on SF-295 CNS, 4.94 µM. In addition, the figures for the TGI in the assay on SF-539 CNS and in the assay on SW-620 colon were 3.66 µM and 4.31 µM, respectively.

For `CCOC(=O)/C=C1\Nc2ccccc2C(c2ccccc2)=NC1OC(C)=O` (stereo unspecified), the TGI with HCT-116 colon, in the assay on HT29 colon, with K-562 leukemia, in the assay with LOX IMVI melanoma, with M14 melanoma and in the assay with SF-295 CNS was > 100 µM each time. For the same molecule, the TGI with SF-539 CNS and in the assay with SW-620 colon was > 100 µM each time.

For `CCC1OCCN1C(C)C` (stereo unspecified), the TGI in the assay on HCT-116 colon, in the assay with K-562 leukemia, in the assay with LOX IMVI melanoma, with SF-295 CNS, in the assay with SF-539 CNS and in the assay on SW-620 colon was > 100 µM each time.

As for `Cc1cc(N(CCC#N)S(=O)(=O)c2ccccc2)ccc1C=O`, the TGI with HCT-116 colon, in the assay on HT29 colon, in the assay with K-562 leukemia, with LOX IMVI melanoma, in the assay with M14 melanoma and in the assay on SF-295 CNS was > 100 µM in each case. Further, the TGI with SF-539 CNS and in the assay with SW-620 colon was > 100 µM throughout.

On to `COc1cc2ccn3c4cc(OC)c(OC)cc4cc3c2cc1OC`, for which the TGI in the assay on HCT-116 colon, in the assay on HT29 colon, in the assay on K-562 leukemia, in the assay with M14 melanoma, in the assay on SF-295 CNS and with SW-620 colon was > 100 µM in each case.

Consider `CC1CCC(O)C(C(O)CC2CC(=O)N(C)C(=O)C2)C1` (stereo unspecified), for which the TGI in the assay with HCT-116 colon, in the assay on HT29 colon, in the assay with K-562 leukemia, in the assay on LOX IMVI melanoma, in the assay with M14 melanoma and in the assay on SF-295 CNS was > 100 µM throughout. In addition, the TGI in the assay with SF-539 CNS and in the assay on SW-620 colon was > 100 µM throughout.

For the molecule `Clc1ccc2c(Cl)ncnc2c1`, the TGI in the assay with HCT-116 colon, in the assay with HT29 colon, with K-562 leukemia, with LOX IMVI melanoma, in the assay with M14 melanoma and in the assay with SF-295 CNS was > 100 µM throughout. Besides, the TGI with SF-539 CNS and in the assay on SW-620 colon was > 100 µM throughout.

With `COC(=O)c1c(C)oc2ccc(OC(C)=O)cc12`, the TGI with HCT-116 colon, in the assay with HT29 colon, with K-562 leukemia, in the assay with LOX IMVI melanoma, with M14 melanoma and in the assay with SF-295 CNS was > 100 µM in each case. Moreover, the TGI in the assay with SF-539 CNS and in the assay on SW-620 colon was > 100 µM each time.

For `Brc1ccc2c(c1)C1(c3cc(Br)ccc3-2)c2cc(Br)ccc2-c2ccc(Br)cc21`, the TGI in the assay with HCT-116 colon, in the assay on HT29 colon, with K-562 leukemia, in the assay with LOX IMVI melanoma, in the assay on M14 melanoma and in the assay with SF-295 CNS was > 100 µM each time. Besides, the TGI in the assay on SF-539 CNS and in the assay on SW-620 colon was > 100 µM in each case.

Turning to `CC1=CC2=C(C)C3(CC3)[C@@](C)(O)C(=O)C2=C1`, the TGI with HCT-116 colon was 0.357 µM; in the assay on HT29 colon it was 0.803 µM; in the assay with K-562 leukemia, > 1 µM; in the assay on LOX IMVI melanoma, 0.594 µM; with M14 melanoma, 0.393 µM; with SF-295 CNS it was 0.571 µM. The TGI in the assay on SF-539 CNS is 0.47 µM; with SW-620 colon it was > 1 µM.

Consider `CC(C)OP(=O)(OC(C)C)C(N(C)C)P(=O)(OC(C)C)OC(C)C.[Cl][Sn]([Cl])([Cl])[c]1ccccc1`, for which the GI50 in the assay on HT29 colon is 0.923 µM; in the assay with K-562 leukemia, 2.26 µM; in the assay with LOX IMVI melanoma it was 2.26 µM; with SF-295 CNS it was 4.15 µM; in the assay on SF-539 CNS, 3.46 µM; in the assay on SW-620 colon, 3.26 µM. The TGI with HT29 colon amounted to 12.8 µM; with K-562 leukemia, 5.62 µM; in the assay with LOX IMVI melanoma, 6.97 µM; with SF-295 CNS it was 9.98 µM; in the assay on SF-539 CNS, 15.1 µM; in the assay with SW-620 colon it was 22.3 µM.

`COc1cc2c3c(c1OC)-c1ccccc1C(C(OC(C)=O)c1ccccc1)C3N(C)CC2` (stereo unspecified): the TGI in the assay with HCT-116 colon, in the assay on HT29 colon, in the assay with LOX IMVI melanoma, in the assay on M14 melanoma, in the assay with SF-295 CNS and in the assay with SF-539 CNS was > 100 µM in each case. Also, the TGI in the assay with SW-620 colon was > 100 µM.
